Data published in patent US8633005B2, “Isocyclomaltooligosaccharide(s), isocyclomaltooligosaccharide-forming enzyme, their preparation and uses” (Hayashibara Co., Ltd., priority 2004, dated 2014).

Legend:
[1] = Clathrating action of ICM (amount of compound clathrated, gas-chromatography); assay type: physicochemical; conditions: 3-folds molar amount
Experimental: ICG5 used in Experiment 15, was dissolved in deionized water to make into an aqueous solution containing 20% (w/v) of ICG5. Twenty milliliters of the aqueous solution was admixed with 3-folds amount, on a molar basis to ICG5, of either of four kinds of short chain alcohols, i.e., methanol, ethanol, propanol, and butanol; four kinds of short chain fatty acids, i.e., acetic acid, propionic acid, n-butyric acid, and n-valeic acid; and four kinds of aromatic compounds, i.e., benzyl alcohol, phenethyl alcohol, 4-phenyl-1-propanol, and o-cresol; and then stirred the mixture to homogeneity for allowing ICG5 to clathrate the compound. Successively, each solution was filtrated, and the resulting filtrate was freeze-dried to remove unclathrated compound. In order to measure the amount of compound clathrated in the freeze-dried product, the amount of each compound in each freeze-dried product was determined by gas-chromatography. Alpha-CD was used as a control and subjected to the similar test.

salivary α-amylase = target: T1, salivary α-amylase (Homo sapiens, UniProt P0DUB6)
T1 sequence (P0DUB6 16-511): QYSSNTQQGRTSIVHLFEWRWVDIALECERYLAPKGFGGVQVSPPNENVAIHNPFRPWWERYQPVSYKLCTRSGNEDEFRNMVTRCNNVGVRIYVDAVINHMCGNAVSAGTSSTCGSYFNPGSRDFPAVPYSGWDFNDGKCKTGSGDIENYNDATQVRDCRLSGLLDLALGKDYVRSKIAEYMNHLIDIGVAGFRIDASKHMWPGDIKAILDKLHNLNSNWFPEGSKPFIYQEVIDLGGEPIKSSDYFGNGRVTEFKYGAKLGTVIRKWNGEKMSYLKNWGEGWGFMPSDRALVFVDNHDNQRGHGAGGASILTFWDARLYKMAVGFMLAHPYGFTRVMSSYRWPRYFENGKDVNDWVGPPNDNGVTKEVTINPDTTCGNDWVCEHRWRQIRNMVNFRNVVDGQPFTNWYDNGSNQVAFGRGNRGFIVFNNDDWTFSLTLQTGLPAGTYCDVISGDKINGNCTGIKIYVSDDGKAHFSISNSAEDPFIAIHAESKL
Excerpt: (§2) 43, 23-29 (1990), the digestibility of ICM by salivary α-amylase, artificial gastric juice, pancreas amylase, and small intestinal enzymes were investigated using ICG5, used in Experiment 15. […] In Table 18, the digestion (%) means a value calculated by the formula: Digestion (%)=(The amount of reducing saccharides/The amount of the total saccharides)×100 , in respective reaction described above.

[2] = pH stability of ICM (ICG5 in buffers pH 2 to 10 heated at 100° C. for 24 hours); assay type: physicochemical; conditions: for Degree of coloring / Purity: 4% (w/v), 100° C. for 24 hours
Experimental: (§1) ICG5, prepared from soluble starch by the method in Experiment 11 and purified to give a purity of 100% by the method in Experiment 1, was used as material. An aqueous ICG5 solution with a concentration of 5% (w/v) was prepared by dissolving ICG5 in deionized water. Then, 8 ml each of the resulting solution was pored into a glass tube, sealed closely, and then heated at 120° C. for 30 to 90 min. After cooling the solution, the degree of coloring of the solution was measured. Further, the purity of ICG5 in the solution was measured by HPLC. The degree of coloring was defined as an absorbance at 480 nm using a 1 cm-cell.
ICG5, used in Experiment 15, was dissolved in various buffers to make into nine kinds of aqueous solutions containing 4% (w/v) of ICG5, adjusted to pH 2 to 10, as shown in Table 14. Eight milliliters of each solution was put in a glass tube, sealed and then heated at 100° C. for 24 hours. After cooling the solution, the degree of coloring and the purity of ICG5 of each solution were measured in the same manner in Experiment 15.

[3] = Amino-carbonyl reaction with glycine; assay type: physicochemical; conditions: 5% (w/v) saccharide + 1% (w/v) glycine, pH 7.0, 120° C., blank subtracted
Experimental: ICG5, used in Experiment 15 and commercially available super high-grade glycine were dissolved in deionized water, and then admixed with phosphate buffer to make into an aqueous ICG5 solution containing 5% (w/v) of ICG5 and 1% (w/v) glycine, adjusted to pH 7.0. As a control, an aqueous α-cyclodextrin (α-CD) solution containing α-CD and glycine was prepared in the same manner using α-CD in place of ICG5. Four milliliters each of the solution was put in a glass tube, sealed and then heated at 120° C. for 30, 60, or 90 min. After cooling the solutions in ambient temperature, the degrees of coloring of the solutions were measured to estimate the degree of amino-carbonyl reaction. As a blank test, a solution containing glycine only was heated in the same manner. The degree of coloring was defined as an absorbance at 480 nm using a 1 cm-cell after subtracting the absorbance of the blank test.

[4] = Thermal stability of ICM (ICG5 aqueous solution heated at 120° C.); assay type: physicochemical; conditions: for Degree of coloring / Purity: 5% (w/v) aqueous solution, 120° C.; for Purity: HPLC
Experimental: as §1

[5] = Reducing power by the Somogyi-Nelson method; assay type: physicochemical
Excerpt: It was concluded that Saccharides I and II were substantially non-reducing saccharides.

Excerpt for small intestinal enzymes: as §2

In the case of `OCC1OC2OC3C(CO)OC(OC4C(CO)OC(OC5C(CO)OC(OCC6OC(OC1C(O)C2O)C(O)C(O)C6O)C(O)C5O)C(O)C4O)C(O)C3O` [ICG5, cyclo{→6)-α-D-glucopyranosyl-(1→4)-α-D-glucopyranosyl-(1→4)-α-D-glucopyranosyl-(1→4)-.α-D-glucopyranosyl-(1→4)α-D-glucopyranosyl-(1→}], the “Amount of compound clathrated” value ([1]; objective compound: 4-Phenyl 1-propanol (aromatic compound)) is reported as 225.2 mg/g-freeze-dried product, the “Amount of compound clathrated” value ([1]; objective compound: Acetic acid (short chain fatty acid)) is reported as 82.4 mg/g-freeze-dried product and the “Amount of compound clathrated” value ([1]; objective compound: Benzyl alcohol (aromatic compound)) is reported as 61.9 mg/g-freeze-dried product. For the same molecule, the “Amount of compound clathrated” value ([1]; objective compound: Butanol (short chain alcohol)) was 82.7 mg/g-freeze-dried product, the “Amount of compound clathrated” value ([1]; objective compound: Ethanol (short chain alcohol)) was 57.6 mg/g-freeze-dried product and the “Amount of compound clathrated” value ([1]; objective compound: Methanol (short chain alcohol)) was 33.5 mg/g-freeze-dried product. For the same molecule, the “Amount of compound clathrated” value ([1]; objective compound: Phenethyl alcohol (aromatic compound)) was 10.0 mg/g-freeze-dried product, the “Amount of compound clathrated” value ([1]; objective compound: Propanol (short chain alcohol)) was 69.2 mg/g-freeze-dried product and the “Amount of compound clathrated” value ([1]; objective compound: Propionic acid (short chain fatty acid)) was 91.4 mg/g-freeze-dried product. For the same molecule, the “Amount of compound clathrated” value ([1]; objective compound: n-Butyric acid (short chain fatty acid)) was 69.9 mg/g-freeze-dried product, the “Amount of compound clathrated” value ([1]; objective compound: n-Valeic acid (short chain fatty acid)) was 48.3 mg/g-freeze-dried product and the “Amount of compound clathrated” value ([1]; objective compound: o-Cresol (aromatic compound)) was 151.5 mg/g-freeze-dried product. The Digestion (salivary α-amylase) was 0%, the Digestion (small intestinal enzymes) was 0.2% and the Hydrolysis ([2]; pH 2, 100° C. for 24 hours) was “completely hydrolyzed”. For the same molecule, the Degree of coloring ([2]; pH 2.0, Acetate buffer) was 0.00 A480 nm, the Purity ([2]; pH 2.0, Acetate buffer) was 0% and the Hydrolysis ([2]; pH 3, 100° C. for 24 hours) was ≥ 50. The Degree of coloring ([2]; pH 3.0, Acetate buffer) was 0.00 A480 nm, the Purity ([2]; pH 3.0, Acetate buffer) was 34.9% and the Hydrolysis ([2]; pH 4, 100° C. for 24 hours) was “slightly hydrolyzed”. For the same molecule, the Degree of coloring ([2]; pH 4.0, Acetate buffer) was 0.00 A480 nm, the Purity ([2]; pH 4.0, Acetate buffer) was 89.9% and the Degree of coloring ([2]; pH 5.0, Acetate buffer) was 0.00 A480 nm. For the same molecule, the Purity ([2]; pH 5.0, Acetate buffer) was 99.4%, the Degree of coloring ([2]; pH 6.0, Acetate buffer) was 0.00 A480 nm and the Purity ([2]; pH 6.0, Acetate buffer) was 100%. For the same molecule, the Degree of coloring ([2]; pH 7.0, Borate buffer) was 0.00 A480 nm, the Purity ([2]; pH 7.0, Borate buffer) was 100% and the Degree of coloring ([2]; pH 8.0, Ammonium buffer) was 0.00 A480 nm. It also gave a Purity ([2]; pH 8.0, Ammonium buffer) of 100%, a Degree of coloring ([2]; pH 9.0, Ammonium buffer) of 0.01 A480 nm and a Purity ([2]; pH 9.0, Ammonium buffer) of 100%. The Degree of coloring ([2]; pH 10.0, Ammonium buffer) was 0.01 A480 nm, the Purity ([2]; pH 10.0, Ammonium buffer) was 99.6% and the Hydrolysis ([2]; pH range of 5 to 10, 100° C. for 24 hours) was “substantially not hydrolyzed”. The Degree of coloring ([3]; heating time 0 min) was 0.00 A480 nm, the Degree of coloring ([3]; heating time 30 min) was 0.00 A480 nm and the Degree of coloring ([3]; heating time 60 min) was 0.00 A480 nm. For the same molecule, the Degree of coloring ([3]; heating time 90 min) was 0.00 A480 nm, the Degree of coloring ([4]; heating time 0 min) was 0.00 A480 nm and the Purity ([4]; heating time 0 min) was 100%. The Degree of coloring ([4]; heating time 30 min) was 0.00 A480 nm, the Purity ([4]; heating time 30 min) was 100% and the Degree of coloring ([4]; heating time 60 min) was 0.00 A480 nm. It also gave a Purity ([4]; heating time 60 min) of 100%, a Degree of coloring ([4]; heating time 90 min) of 0.01 A480 nm and a Purity ([4]; heating time 90 min) of 100%. For the same molecule, the Thermal stability ([4]; aqueous solution heated to 120° C.) was “stable under the heating condition” and the Reducing power [5] was “less than the measurable limit”.
